biological target: T1, SARS2 protease (Severe acute respiratory syndrome coronavirus 2, UniProt P0DTD1); experiment: SARS-CoV-2 protease inhibition assay (SARS2 FRET protease assay); assay type: biochemical; conditions: IC50 (μM), SARS2 protease 30 nM, peptide substrate 1.3 μM, 120 minutes at 37° C., compounds 20 μM to 0.075 nM
T1 construct: SARS2 protease was added to a final concentration of 30 nM

Compared with `CCCC[C@H](NC(=O)OC(c1ccccc1)C(F)(F)c1cccc(F)c1)C(=O)N[C@@H](CC1CCNC1=O)C(=O)C(=O)NCC` (stereo in doubt) [Compound A173, 2,2-difluoro-2-(3-fluorophenyl)-1-phenylethyl ((S)-1-(((S)-4-(ethylamino)-3,4-dioxo-1-((S)-2-oxopyrrolidin-3-yl)butan-2-yl)amino)-1-oxohexan-2-yl)carbamate], `CCCC[C@H](NC(=O)OC(c1ccccc1)C(C)(C)c1cccc(F)c1)C(=O)N[C@@H](C[C@@H]1CCNC1=O)C(=O)C(=O)NC1CC1` (stereo partly drawn) [Compound A43] is 6.7-fold higher in IC50: 0.0386 µM for the first, 0.26 µM for the second.

First: CC(C)C[C@H](NC(=O)OC(c1ccc(F)cc1)C(F)(F)c1cccc(Cl)c1)C(=O)N[C@H](C=O)C[C@@H]1CCNC1=O (stereo partly drawn) [Compound A1]
Second: CC(C)C[C@H](NC(=O)OC(c1ccccc1)C(F)(F)c1cccc(F)c1)C(=O)N[C@H](C=O)C[C@@H]1CCNC1=O (stereo partly drawn) [Compound A2]
The IC50 of the first is 40-fold lower: 0.0001 µM for the first, 0.004 µM for the second. The first is the more potent here.

Compared with `CC(C)C[C@H](NC(=O)OC(c1ccccc1)C1(c2cccc(Cl)c2)CCCCC1)C(=O)N[C@@H](C[C@@H]1CCNC1=O)C(=O)C(=O)NC1CC1` (stereo partly drawn) [Compound A3], `CC(C)C[C@H](NC(=O)OC(c1ccc(Cl)cc1)C1(c2cccc(Cl)c2)CCCCC1)C(=O)N[C@@H](C[C@@H]1CCNC1=O)C(=O)C(=O)NC1CC1` (stereo partly drawn) [Compound A36] is 2.2-fold higher in IC50: 0.52 µM for the first, 1.15 µM for the second.

Compared with `CC(C)C[C@H](NC(=O)O[C@@H](c1ccccc1)C(C)(C)c1cccc(Cl)c1)C(=O)N[C@@H](C[C@@H]1CCNC1=O)C(=O)C(=O)NC1CC1` [Compound A4], `CC(C)C[C@H](NC(=O)O[C@H](c1ccccc1)C(C)(C)c1cccc(Cl)c1)C(=O)N[C@@H](C[C@@H]1CCNC1=O)C(=O)C(=O)NC1CC1` [Compound A5] is 3.5-fold higher in IC50: 0.8 µM for the first, 2.79 µM for the second.

Going from `CCC(CC)(c1cccc(Cl)c1)C(OC(=O)N[C@@H](CC(C)C)C(=O)N[C@@H](C[C@@H]1CCNC1=O)C(=O)C(=O)NC1CC1)c1ccccc1` (stereo partly drawn) [Compound A6] to `CCN1CCC(NC(=O)C(=O)[C@H](C[C@@H]2CCNC2=O)NC(=O)[C@H](CC(C)C)NC(=O)OC(c2ccccc2)C(CC)(CC)c2cccc(Cl)c2)CC1` (stereo partly drawn) [Compound A17], the IC50 rises from 0.24 µM to 30.3 µM (130-fold). The first is the more potent here.

First: CC(C)C[C@H](NC(=O)OC(c1cccc(Cl)c1)C1(c2cccc(Cl)c2)CCC1)C(=O)N[C@H](C=O)C[C@@H]1CCNC1=O (stereo partly drawn) [Compound A7]
Second: CC(C)C[C@H](NC(=O)O[C@H](c1cccc(Cl)c1)C1(c2cccc(Cl)c2)CC1)C(=O)N[C@H](C=O)C[C@@H]1CCNC1=O [Compound A38]
The IC50 of the first is 35-fold higher: 0.12 µM for the first, 0.0034 µM for the second. The second is the more potent here.

First: CCCCCOC(=O)N[C@@H](CC(C)C)C(=O)N[C@@H](C[C@@H]1CCNC1=O)C(=O)C(=O)NC1CCN(C)CC1 [Compound A8]
Second: CCCCCOC(=O)N[C@@H](CC(C)C)C(=O)N[C@@H](C[C@@H]1CCNC1=O)C(=O)C(=O)NC1CC1 [Compound A12]
The IC50 of the first is 17-fold higher: 15 µM for the first, 0.876 µM for the second.

Compared with `CC(C)C[C@H](NC(=O)O[C@H](c1ccc(F)cc1)C(F)(F)c1cccc(Cl)c1)C(=O)N[C@@H](C[C@@H]1CCNC1=O)C(=O)C(=O)NC1CC1` [Compound A9], `CCC(CC)(c1cccc(Cl)c1)C(OC(=O)N[C@@H](CC(C)C)C(=O)N[C@@H](C[C@@H]1CCNC1=O)C(=O)C(=O)NC1CC1)c1ccc(F)cc1` (stereo partly drawn) [Compound A14] is 900-fold higher in IC50: 0.0001 µM for the first, 0.09 µM for the second. The first is the more potent here.

Going from `CC(C)C[C@H](NC(=O)OC(c1ccccc1)C(F)(F)c1cccc(F)c1)C(=O)N[C@@H](C[C@@H]1CCNC1=O)C(=O)C(=O)NC1CC1` (stereo partly drawn) [Compound A10] to `CCCCC[C@H](NC(=O)O[C@@H](c1ccccc1)C(F)(F)c1cccc(Cl)c1)C(=O)N[C@@H](C[C@@H]1CCNC1=O)C(=O)C(=O)NC1CC1` [Compound A33], the IC50 rises from 0.005 µM to 0.3 µM (60-fold). The first is the more potent here.

First: CC(C)C[C@H](NC(=O)OC(c1cccc(F)c1)C(C)(C)c1cccc(Cl)c1)C(=O)N[C@H](C=O)C[C@@H]1CCNC1=O (stereo partly drawn) [Compound A11]
Second: CC(C)C[C@H](NC(=O)OC(c1ccccc1)C(C)(C)c1cccc(Cl)c1)C(=O)N[C@H](C=O)C[C@@H]1CCCNC1=O (stereo partly drawn) [Compound A42]
The IC50 of the first is 90-fold lower: 0.0001 µM for the first, 0.009 µM for the second. The first is the more potent here.

Compared with `CCCCCOC(=O)N[C@@H](CC(C)C)C(=O)N[C@H](C=O)C[C@@H]1CCNC1=O` [Compound A13], `CCCCCOC(=O)N[C@@H](CC(C)C)C(=O)N[C@@H](C[C@@H]1CCNC1=O)C(=O)C(=O)NC1CCCCC1` [Compound A24] is 270-fold higher in IC50: 0.08 µM for the first, 21.4 µM for the second. The first is the more potent here.

Going from `CC(C)C[C@H](NC(=O)O[C@H](c1cccc(F)c1)C(C)(C)c1cccc(Cl)c1)C(=O)N[C@@H](C[C@@H]1CCNC1=O)C(=O)C(=O)NC1CC1` [Compound A15] to `CCC(CC)(c1cccc(Cl)c1)C(OC(=O)N[C@@H](CC(C)C)C(=O)N[C@@H](C[C@@H]1CCNC1=O)C(=O)C(=O)NC1CC1)c1cccc(Cl)c1` (stereo partly drawn) [Compound A35], the IC50 rises from 0.31 µM to 1.07 µM (3.5-fold). The first is the more potent here.

Going from `CC(C)C[C@H](NC(=O)OC(c1cccc(Cl)c1)C1(c2cccc(Cl)c2)CCC1)C(=O)N[C@@H](C[C@@H]1CCNC1=O)C(=O)C(=O)NC1CC1` (stereo partly drawn) [Compound A16] to `CC(C)C[C@H](NC(=O)O[C@H](c1cccc(Cl)c1)C1(c2cccc(Cl)c2)CC1)C(=O)N[C@@H](C[C@@H]1CCNC1=O)C(=O)C(=O)NC1CC1` [Compound A30], the IC50 falls from 0.38 µM to 0.1 µM (3.8-fold). The second is the more potent here.

First: CCC(CC)(c1cccc(Cl)c1)C(OC(=O)N[C@@H](CC(C)C)C(=O)N[C@H](C=O)C[C@@H]1CCNC1=O)c1ccc(F)c(F)c1 (stereo partly drawn) [Compound A18]
Second: CCC(CC)(c1cccc(Cl)c1)C(OC(=O)N[C@@H](CC(C)C)C(=O)N[C@@H](C[C@@H]1CCNC1=O)C(=O)C(=O)NC1CC1)c1ccc(F)c(F)c1 (stereo partly drawn) [Compound A22]
The IC50 of the first is 32-fold lower: 0.01 µM for the first, 0.32 µM for the second. The first is the more potent here.

Compared with `CCCCC[C@H](NC(=O)OC(c1ccccc1)C(F)(F)c1cccc(Cl)c1)C(=O)N[C@H](C=O)C[C@@H]1CCNC1=O` (stereo partly drawn) [Compound A19], `CCCC[C@H](NC(=O)OC(c1ccccc1)C(C)(C)c1cccc(F)c1)C(=O)N[C@H](C=O)C[C@@H]1CCNC1=O` (stereo partly drawn) [Compound A37] is 130-fold higher in IC50: 0.007 µM for the first, 0.91 µM for the second.

First: O=C[C@H](C[C@@H]1CCNC1=O)NC(=O)[C@H](CC1CCCCC1)NC(=O)OC(c1ccccc1)C(F)(F)c1cccc(Cl)c1 (stereo partly drawn) [Compound A20]
Second: CC(C)(c1cccc(F)c1)C(OC(=O)N[C@@H](CC1CCCCC1)C(=O)N[C@H](C=O)C[C@@H]1CCNC1=O)c1ccccc1 (stereo partly drawn) [Compound A34]
The IC50 of the first is 3-fold higher: 0.0003 µM for the first, 0.0001 µM for the second. The second is the more potent here.

Compared with `O=C(N[C@@H](CC1CCCCC1)C(=O)N[C@@H](C[C@@H]1CCNC1=O)C(=O)C(=O)NC1CC1)OC(c1ccccc1)C(F)(F)c1cccc(Cl)c1` (stereo partly drawn) [Compound A21], `CC(C)C[C@H](NC(=O)OC(c1ccccc1)C(F)(F)c1cccc(Cl)c1)C(=O)N[C@H](C#N)C[C@@H]1CCNC1=O` (stereo partly drawn) [Compound A41] is 38-fold higher in IC50: 0.06 µM for the first, 2.29 µM for the second.

Going from `CC(C)C[C@H](NC(=O)O[C@@H](c1cccc(Cl)c1)C1(c2cccc(Cl)c2)CC1)C(=O)N[C@@H](C[C@@H]1CCNC1=O)C(=O)C(=O)NC1CC1` [Compound A31] to `CCC(CC)(c1cccc(Cl)c1)C(OC(=O)N[C@@H](CC(C)C)C(=O)N[C@@H](C[C@@H]1CCNC1=O)C(=O)C(=O)NC1CC1)c1ccc(Cl)cc1` (stereo partly drawn) [Compound A44], the IC50 rises from 0.007 µM to 0.74 µM (110-fold). The first is the more potent here.

Compared with `CCN1CCC(NC(=O)C(=O)[C@H](C[C@@H]2CCNC2=O)NC(=O)[C@H](CC(C)C)NC(=O)OC(c2ccc(F)cc2)C(CC)(CC)c2cccc(Cl)c2)CC1` (stereo partly drawn) [Compound A32], `CC(C)C[C@H](NC(=O)OC(c1ccccc1)C(C)(C)c1cccc(F)c1)C(=O)NC(C)(C=O)C[C@@H]1CCNC1=O` (stereo partly drawn) [Compound A39] is 4.4-fold lower in IC50: 10.1 µM for the first, 2.3 µM for the second. The second is the more potent here.

In the case of `CCCC[C@H](NC(=O)OC(c1ccccc1)C1(c2cccc(F)c2)CC1)C(=O)N[C@H](C=O)C[C@@H]1CCNC1=O` (stereo partly drawn) [Compound A40], the IC50 is reported as 0.003 µM.
